Assay results as given in US6924295B2, “Tetrahydroquinoline derivative compound and drug containing the compound as active ingredient” (Ono Pharmaceutical Co., Ltd., priority 2001, dated 2005).

How the values were obtained:
[1] = target: T1, human PPAR γ (Homo sapiens, UniProt P37231); assay: Luciferase assay using human PPAR γ (PPAR γ agonistic activity); assay type: cell-based; conditions: compound 10 μM; luciferase activity of troglitazone (10 μM) defined as 1.0; CV-1 cells with Gal4-human PPAR γ ligand binding domain chimera, 42 hours
T1 construct: expressed in transfected cells; host or cells: CV-1 cells
T1 sequence (P37231 204-505): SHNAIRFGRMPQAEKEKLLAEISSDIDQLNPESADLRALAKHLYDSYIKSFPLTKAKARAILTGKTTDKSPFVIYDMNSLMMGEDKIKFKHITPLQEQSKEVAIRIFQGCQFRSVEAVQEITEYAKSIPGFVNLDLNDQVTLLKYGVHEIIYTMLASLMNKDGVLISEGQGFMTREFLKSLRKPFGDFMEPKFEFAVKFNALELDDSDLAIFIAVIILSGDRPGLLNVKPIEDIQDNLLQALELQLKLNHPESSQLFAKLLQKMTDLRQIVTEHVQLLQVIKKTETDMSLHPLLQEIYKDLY

[2] = target: T2, human PPAR α (Homo sapiens, UniProt Q07869); assay: Luciferase assay using human PPAR α (PPAR α agonistic activity); assay type: cell-based; conditions: compound 10 μM; luciferase activity of carbacyclin (10 μM) defined as 1.0; CV-1 cells with Gal4-human PPAR α ligand binding domain chimera, 42 hours
T2 construct: expressed in transfected cells; host or cells: CV-1 cells
T2 sequence (Q07869 167-468): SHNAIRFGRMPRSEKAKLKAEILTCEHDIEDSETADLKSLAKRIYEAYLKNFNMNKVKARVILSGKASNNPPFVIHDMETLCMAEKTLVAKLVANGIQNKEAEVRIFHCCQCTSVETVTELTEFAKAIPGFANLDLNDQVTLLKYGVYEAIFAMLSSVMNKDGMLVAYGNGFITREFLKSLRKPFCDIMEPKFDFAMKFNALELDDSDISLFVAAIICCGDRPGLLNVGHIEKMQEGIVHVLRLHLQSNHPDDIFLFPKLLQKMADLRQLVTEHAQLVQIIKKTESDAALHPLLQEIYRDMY

## Cc1ccc(-c2nc(CCOc3cccc4c3CCCN4CCC(=O)O)c(C)o2)cc1 [Example 2]
[1]
  Relative Activity to a positive control compound (troglitazone = 1): 6.7
[2]
  Relative Activity to a positive control compound (carbacyclin = 1): 0.5
